The experiment concerns MNT-1 cells. In words: Measurement of the relative melanin concentration (absorbance at 470 nm of protein lysates). The experiment is classed as cell-based, human. The following applies: Homo sapiens, 288 h, 3.5 mM, 12 days, read-out: percentage inhibition (depigmentation positive control). On the procedure:
4×10^5 MNT-1 cells were seeded per well in a 6-well plate (#353046, Falcon) on day-1. On day 0, the cells were transfected with 50 nM of mimetic of the miRNAs (hsa-mir-137 # C-300604-07-005, hsa-mir-7 # C-300547-05-0005, hsa-mir-330-5p # C-301082-01-0005, negative control # NC-002000-01-05, Dharmacon), using 5 μL of Lipofectamine 2000 (#1668-019, Invitrogen). On day 1, the medium was changed. On day 3, the cells were trypsinized and seeded at 4×10^5 cells per well. On day 4, the cells were transfected again with 50 nM of mimetic of the miRNAs (see day 0). On day 5, the medium was changed. On day 7, the cells were trypsinized and seeded at 4×10^5 cells per well. On day 8, the cells were transfected with 50 nM of mimetic of the miRNAs (see day 0). On day 9, the medium was changed. On day 10, the cells were trypsinized and divided into two (from one by six wells to two by six wells). On day 12, one six-well plate was used for lysis of the RNA and the other for lysis of the proteins. As positive control of depigmentation, MNT-1 cells were incubated with 3.5 mM of kojic acid (Sigma K3125-5G) for 12 days. The cells were distributed as described and the kojic acid was renewed with the medium every 4 days. The percentage inhibition of the kojic acid is of the order of 10%.
On day 12, the cells were washed in PBS twice and lysed in 75 μL/well of a 6-well dish of lysis buffer for the RIPA proteins. The protein lysates were transferred to 1.5-ml Eppendorf tubes and vortexed lightly to homogenize the solution before putting the tube on ice or for storage at −80° C. 2 μL of protein lysate was used for measuring the absorbance of the melanin at 470 nm using the NanoVue spectrophotometer (GE Healthcare). The protein lysate of the unpigmented XB2 keratinocytes was used as calibrator sample (reference=0). To detect the relative quantity of melanin, all the samples were compared with the transfection control sample (miCtrl). The absorbance at 470 nm of the sample miCtrl was fixed at 1 as reference. In addition, the melanin absorption at 470 nm was normalized taking into account the concentration of proteins of each sample relative to miCtrl.

As usually defined, the inhibition is how much of the control response was suppressed. As for `O=c1cc(CO)occ1O` [kojic acid, reference compound], the inhibition at 3500 µM was roughly 10%.

These data come from patent US9410152B2, “Use of microrna molecules to influence skin pigmentation” (CHANEL PARFUMS BEAUTE, priority 2011, dated 2016).
